US20060281720A1, “5-Androstenediol As An Inhibitor of Gliomas” (priority 2005, published 2006)

How the values were obtained:
[1] = system: human T98 glioma cells; experiment: Proliferation of human T98 glioma cells by 3H-TdR incorporation; assay type: cell-based; settings: 3 days; for cell growth / proliferation (3H-TdR incorporation): compared to controls; for dose dependency of antiproliferative effect / proliferation: Example 2, FIG. 2; for dose dependency of antiproliferative effect: 500, 50, 5.0 and 0.5 μm; for proliferation: at 500 μm
Description: (§1) αAED, βAED, αAET, and βAET, are commercially available.
(§2) The F98 cells are weakly immunogenic. […] The T9 cell line is tumorgenic and immunogenic.
(§3) During the growth phase, the media was not changed.
(§4) Rat F98 glioma cells and […] glioma cells were grown and cultured as in example 1 above. The cells were cultured in the presence of αAED or βAED in titrated concentrations of 500 μm, 50 μm, 5.0 μm, and 0.5 μm. After 3 days, glioma cell proliferation was measured as described above.
(§5) The cells were cultured in the presence of αAED, βAED, αAET, βAET, or vehicle in titrated concentrations of 400 μm, 200 μm, 100 μm, and 50 μm.

[2] = system: rat F98 glioma cells; experiment: Proliferation of rat F98 glioma cells by 3H-TdR incorporation; assay type: cell-based; settings: 3 days; for cell growth / proliferation (3H-TdR incorporation): compared to controls; for dose dependency of antiproliferative effect / proliferation: Example 2, FIG. 2; for dose dependency of antiproliferative effect: 500, 50, 5.0 and 0.5 μm; for proliferation: at 500 μm
Description: as §1, §2, §3, §4, §5

[3] = system: human U87 glioma cells; settings: Example 1, FIG. 1; 500 μm, 3 days, compared to controls
Description: (§6) αAED, βAED, αAET, and βAET, are commercially available. Unless otherwise indicated, all steroids were dissolved in DMSO:ETHOL (1:1 v/v). Stock solutions were refrigerated and brought to room temperature before use. For testing, stock solutions were diluted in media immediately before use.
(§7) The rat F98 cell line was obtained from the American Type Culture Collection (ATCC No. CRL-2397). These cells are tumorgenic and have biological characteristics that closely resemble those of human glioblastoma. The F98 cells are weakly immunogenic. […] The T9 cell line is tumorgenic and immunogenic. The human U-87 cell line was obtained from American Type Culture Collection (ATCC No. HTB-14). These cells are tumorgenic and are derived from malignant gliomas. The human T98 cell line was obtained from the American Type Culture Collection (ATCC No. CRL-1690). These cells are derived from the brain of a subject diagnosed with glioblastoma multiforme.
(§8) Cells were grown in Complete Media (CM) consisting of Dulbecco's Modified Eagle Medium. Cells were initially seeded at a density of 1×10^4 cells per 0.2 ml in 96 well plates and grown at 37° C. During the growth phase, the media was not changed. Proliferation was measured by tritium uptake (as a measure of DNA synthesis). One microcurie (1 μC) was added to the cells and incubated overnight. The 96 well plate was then refrigerated and counted in a topcount cell plate harvester.
(§9) Rat F98 and T9 glioma cells and […] and U87 glioma cells were cultured in 96 well plates at a density of approximately 1×10^4 cells per well. Cells were treated with 500 μm of αAED or βAED or vehicle and cultured for 3 days. The cultures were pulsed with 3H-TdR for the last 15 hours.

[4] = system: rat T9 glioma cells; settings: Example 1, FIG. 1; 500 μm, 3 days, compared to controls
Description: as §6, §7, §8, §9

[5] = system: rat F98 glioma cells; experiment: Morphology of rat F98 glioma cells viewed in situ by microscope; assay type: cell-based; settings: Example 3, FIG. 3, 24 hours; for morphological changes compared to vehicle treated cells: 20× magnification
Description: Cells were cultured as described in example 1 for 24 hours. Cells were cultured with […] of αAED, βAED, βAET, and vehicle. After culture, the cells were viewed in situ under 20× magnification using a reverse image microscope.

[6] = system: human promyelocytic HL60 cells; settings: Huynh and Loria, J Leukoc Biol 1997; cited from earlier work
[7] = system: murine P388D1; settings: Huynh and Loria, J Leukoc Biol 1997; cited from earlier work
[8] = system: Raw 264.7; settings: Huynh and Loria, J Leukoc Biol 1997; cited from earlier work
[9] = Example 4, FIG. 4, 400, 200, 100 and 50 μM
[10] = Example 5, FIG. 5, 400, 200, 100 and 50 μM

C[C@]12CC[C@H]3[C@@H]([C@H](O)C=C4C[C@@H](O)CC[C@@]43C)[C@@H]1CC[C@@H]2O [αAET, 5-androstene-3β-7α-17β-triol]
cell growth / proliferation (3H-TdR incorporation) [1, 9]: displayed significant effects on the proliferation | cell growth / proliferation (3H-TdR incorporation) [2, 10]: displayed significant effects on the proliferation

5-androstene-3β-17β-diol [βAED]
cell growth / proliferation (3H-TdR incorporation) ([1]; Example 1, FIG. 1, 500 μm): inhibited cell growth | dose dependency of antiproliferative effect [1]: dose dependent | proliferation [1]: inhibited the proliferation | cell growth / proliferation (3H-TdR incorporation) [1, 9]: inhibited cell growth | cell growth / proliferation (3H-TdR incorporation) [3]: inhibited cell growth | cell growth / proliferation (3H-TdR incorporation) [4]: inhibited cell growth | cell growth / proliferation (3H-TdR incorporation) ([2]; Example 1, FIG. 1, 500 μm): inhibited cell growth | dose dependency of antiproliferative effect [2]: dose dependent | proliferation [2]: inhibited the proliferation | cell growth / proliferation (3H-TdR incorporation) [2, 10]: inhibited cell growth | morphology of apoptosis (cell shrinkage, rounding, vacuolization, partial detachment, lobulated appearance) [5]: display morphology of apoptasis | morphological changes compared to vehicle treated cells [5]: significant morphological changes

C[C@]12CC[C@H]3[C@@H]([C@@H](O)C=C4C[C@@H](O)CC[C@@]43C)[C@@H]1CC[C@@H]2O [βAET, 5-androstene-3β-7β-17β-triol]
cell growth / proliferation (3H-TdR incorporation) [1, 9]: displayed significant effects on the proliferation | cell growth / proliferation (3H-TdR incorporation) [2, 10]: displayed significant effects on the proliferation | morphology of apoptosis (cell shrinkage, rounding, vacuolization, partial detachment, lobulated appearance) [5]: display morphology of apoptasis | morphological changes compared to vehicle treated cells [5]: significant morphological changes

5-androstene-3β-17α-diol [αAED]
proliferation and apoptosis [6]: inhibits the proliferation and induces apoptosis | proliferation and apoptosis [7]: inhibits the proliferation and induces apoptosis | cell growth / proliferation (3H-TdR incorporation) ([1]; Example 1, FIG. 1, 500 μm): inhibited cell growth | dose dependency of antiproliferative effect [1]: dose dependent | proliferation [1]: inhibited the proliferation | cell growth / proliferation (3H-TdR incorporation) [1, 9]: significantly inhibited cell growth | cell growth / proliferation (3H-TdR incorporation) [3]: inhibited cell growth | cell growth / proliferation (3H-TdR incorporation) [4]: inhibited cell growth | cell growth / proliferation (3H-TdR incorporation) ([2]; Example 1, FIG. 1, 500 μm): inhibited cell growth | dose dependency of antiproliferative effect [2]: dose dependent | proliferation [2]: inhibited the proliferation | cell growth / proliferation (3H-TdR incorporation) [2, 10]: significantly inhibited cell growth | proliferation and apoptosis [8]: inhibits the proliferation and induces apoptosis | morphology of apoptosis (cell shrinkage, rounding, vacuolization, partial detachment, lobulated appearance) [5]: display morphology of apoptasis | morphological changes compared to vehicle treated cells [5]: most drastic morphological changes
